Laboratory results from ChEMBL document CHEMBL3085742, “Experimental confirmation of new drug-target interactions predicted by Drug Profile Matching” (J Med Chem, 2013).

How the values were obtained:
[1] = molecular target: D(1A) dopamine receptor (Homo sapiens) (UniProt P21728); experiment: Antagonist activity at human recombinant dopamine D1 receptor expressed in CHOK1 cells assessed as inhibition of agonist-induced cAMP accumulation at 100 uM preincubated for 10 mins prior to agonist addition measured after 30 mins by HTRF assay relative to SCH23390; type: functional, cell-based; settings: CHO-K1
Sequence of D(1A) dopamine receptor (Homo sapiens) (P21728 whole entry): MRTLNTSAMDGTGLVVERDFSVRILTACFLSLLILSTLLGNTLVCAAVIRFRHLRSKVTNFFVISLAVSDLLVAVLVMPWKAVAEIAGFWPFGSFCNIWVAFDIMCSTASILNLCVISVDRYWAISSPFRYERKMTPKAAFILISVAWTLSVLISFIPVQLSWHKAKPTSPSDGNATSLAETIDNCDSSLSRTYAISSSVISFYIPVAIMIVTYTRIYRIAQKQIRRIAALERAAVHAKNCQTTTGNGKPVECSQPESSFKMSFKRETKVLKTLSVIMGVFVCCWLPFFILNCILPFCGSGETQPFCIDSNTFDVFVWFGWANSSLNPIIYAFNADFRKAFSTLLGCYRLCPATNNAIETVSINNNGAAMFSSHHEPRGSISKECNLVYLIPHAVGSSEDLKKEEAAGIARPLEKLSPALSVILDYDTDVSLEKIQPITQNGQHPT

[2] = molecular target: D(1A) dopamine receptor (Homo sapiens) (UniProt P21728); experiment: Agonist activity at human recombinant dopamine D1 receptor expressed in CHOK1 cells assessed as stimulation of cAMP accumulation at 100 uM after 30 mins by HTRF assay relative to SKF81297; type: functional, cell-based; settings: CHO-K1
[3] = molecular target: D(2) dopamine receptor (Homo sapiens) (UniProt P14416); experiment: Agonist activity at human recombinant dopamine D2 long receptor expressed in CHOK1 cells coexpressing mitochondrial apoaequorin at 100 uM by luminometric analysis relative to quinpirol; type: cell-based; settings: CHO-K1
Sequence of D(2) dopamine receptor (Homo sapiens) (P14416 whole entry): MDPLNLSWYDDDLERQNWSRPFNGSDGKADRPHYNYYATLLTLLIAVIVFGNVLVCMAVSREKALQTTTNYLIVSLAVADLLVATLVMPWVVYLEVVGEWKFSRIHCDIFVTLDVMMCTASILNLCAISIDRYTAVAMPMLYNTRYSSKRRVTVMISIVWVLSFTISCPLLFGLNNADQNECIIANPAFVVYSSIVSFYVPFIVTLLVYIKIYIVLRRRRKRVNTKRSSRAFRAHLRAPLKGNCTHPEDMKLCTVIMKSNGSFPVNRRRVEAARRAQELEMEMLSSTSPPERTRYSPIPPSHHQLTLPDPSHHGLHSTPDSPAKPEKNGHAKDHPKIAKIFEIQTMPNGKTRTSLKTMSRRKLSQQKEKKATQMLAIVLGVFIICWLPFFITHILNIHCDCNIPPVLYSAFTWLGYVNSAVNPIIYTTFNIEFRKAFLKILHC

[4] = molecular target: D(2) dopamine receptor (Homo sapiens) (UniProt P14416); experiment: Antagonist activity at human recombinant dopamine D2 long receptor expressed in CHOK1 cells coexpressing mitochondrial apoaequorin assessed as inhibition of agonist-induced effect at 50 uM after 15 mins by luminometric analysis relative to haloperidol; type: cell-based; settings: CHO-K1
[5] = molecular target: T1, Angiotensin-converting enzyme (Homo sapiens, UniProt P12821); experiment: Inhibition of ACE (unknown origin) assessed as 3-Hydroxybutyril-glycil-glycil-glycine conversion to 3-hydroxybutyric acid at 500 uM after 60 mins by WST assay relative to control
T1 sequence (P12821 whole entry): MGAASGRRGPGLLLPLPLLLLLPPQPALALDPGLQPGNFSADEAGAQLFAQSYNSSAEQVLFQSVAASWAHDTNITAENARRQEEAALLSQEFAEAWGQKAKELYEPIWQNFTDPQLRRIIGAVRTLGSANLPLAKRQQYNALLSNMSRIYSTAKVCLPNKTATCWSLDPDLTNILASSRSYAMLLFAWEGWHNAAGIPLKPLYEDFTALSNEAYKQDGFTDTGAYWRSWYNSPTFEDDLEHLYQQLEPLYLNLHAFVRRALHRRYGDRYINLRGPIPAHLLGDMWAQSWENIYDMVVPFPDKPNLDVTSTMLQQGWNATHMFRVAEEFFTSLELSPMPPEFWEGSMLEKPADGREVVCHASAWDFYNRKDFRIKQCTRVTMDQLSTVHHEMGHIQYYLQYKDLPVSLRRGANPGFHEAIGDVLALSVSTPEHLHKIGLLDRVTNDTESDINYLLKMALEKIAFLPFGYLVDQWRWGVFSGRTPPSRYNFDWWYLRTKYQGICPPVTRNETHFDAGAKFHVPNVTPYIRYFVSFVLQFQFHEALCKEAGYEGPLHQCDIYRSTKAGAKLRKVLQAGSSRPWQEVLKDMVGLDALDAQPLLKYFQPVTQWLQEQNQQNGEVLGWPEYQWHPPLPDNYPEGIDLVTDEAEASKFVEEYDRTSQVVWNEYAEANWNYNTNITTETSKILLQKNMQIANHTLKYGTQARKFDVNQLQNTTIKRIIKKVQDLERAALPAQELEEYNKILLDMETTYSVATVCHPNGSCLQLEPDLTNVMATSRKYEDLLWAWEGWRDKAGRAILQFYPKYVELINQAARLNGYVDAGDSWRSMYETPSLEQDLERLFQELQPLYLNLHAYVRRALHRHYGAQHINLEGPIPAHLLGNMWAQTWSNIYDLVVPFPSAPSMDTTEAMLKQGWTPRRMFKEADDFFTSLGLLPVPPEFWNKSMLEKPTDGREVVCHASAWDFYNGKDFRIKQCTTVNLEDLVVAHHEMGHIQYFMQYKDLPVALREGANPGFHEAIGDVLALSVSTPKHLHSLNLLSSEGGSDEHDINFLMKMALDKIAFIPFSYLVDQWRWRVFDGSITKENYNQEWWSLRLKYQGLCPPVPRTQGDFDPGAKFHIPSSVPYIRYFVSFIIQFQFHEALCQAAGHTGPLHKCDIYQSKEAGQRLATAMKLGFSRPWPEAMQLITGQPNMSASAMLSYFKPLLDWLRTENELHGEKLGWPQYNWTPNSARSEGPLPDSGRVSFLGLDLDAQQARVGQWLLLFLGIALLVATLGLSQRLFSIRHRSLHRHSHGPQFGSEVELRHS

[6] = molecular target: T2, Prostaglandin G/H synthase 1 (Homo sapiens, UniProt P23219); experiment: Inhibition of COX-1 (unknown origin) using arachidonic acid as substrate assessed as formation of prostanoid products at 500 uM preincubated for 10 mins prior to substrate addition measured after 2 mins by Ellman's method relative to control
T2 sequence (P23219 whole entry): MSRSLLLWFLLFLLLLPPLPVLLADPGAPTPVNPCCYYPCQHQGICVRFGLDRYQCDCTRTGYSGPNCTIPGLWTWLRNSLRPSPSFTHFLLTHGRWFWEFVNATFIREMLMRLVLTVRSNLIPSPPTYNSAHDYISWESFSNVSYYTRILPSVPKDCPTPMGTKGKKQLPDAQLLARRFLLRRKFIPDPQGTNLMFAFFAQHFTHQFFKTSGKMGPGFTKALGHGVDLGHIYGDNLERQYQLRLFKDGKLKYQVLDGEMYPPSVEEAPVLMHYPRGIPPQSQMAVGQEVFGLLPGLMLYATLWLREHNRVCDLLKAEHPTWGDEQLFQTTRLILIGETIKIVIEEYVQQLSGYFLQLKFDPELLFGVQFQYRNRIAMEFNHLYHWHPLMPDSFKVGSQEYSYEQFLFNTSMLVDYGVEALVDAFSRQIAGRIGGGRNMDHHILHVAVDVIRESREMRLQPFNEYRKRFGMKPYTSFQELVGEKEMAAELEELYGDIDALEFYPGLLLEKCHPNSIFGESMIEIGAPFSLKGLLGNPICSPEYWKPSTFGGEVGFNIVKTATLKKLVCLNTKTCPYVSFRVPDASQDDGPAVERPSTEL

[7] = molecular target: T1, Angiotensin-converting enzyme; experiment: Inhibition of ACE (unknown origin) assessed as 3-Hydroxybutyril-glycil-glycil-glycine conversion to 3-hydroxybutyric acid at 128 uM after 60 mins by WST assay relative to control
[8] = molecular target: D(2) dopamine receptor (Homo sapiens) (UniProt P14416); experiment: Agonist activity at human recombinant dopamine D2 long receptor expressed in CHOK1 cells coexpressing mitochondrial apoaequorin at 8 uM by luminometric analysis relative to quinpirol; type: cell-based; settings: CHO-K1
[9] = molecular target: D(2) dopamine receptor (Homo sapiens) (UniProt P14416); experiment: Antagonist activity at human recombinant dopamine D2 long receptor expressed in CHOK1 cells coexpressing mitochondrial apoaequorin assessed as inhibition of agonist-induced effect at 8 uM after 15 mins by luminometric analysis relative to haloperidol; type: cell-based; settings: CHO-K1
[10] = molecular target: D(1A) dopamine receptor (Homo sapiens) (UniProt P21728); experiment: Agonist activity at human recombinant dopamine D1 receptor expressed in CHOK1 cells assessed as stimulation of cAMP accumulation at 8 uM after 30 mins by HTRF assay relative to SKF81297; type: functional, cell-based; settings: CHO-K1
[11] = molecular target: D(1A) dopamine receptor (Homo sapiens) (UniProt P21728); experiment: Antagonist activity at human recombinant dopamine D1 receptor expressed in CHOK1 cells assessed as inhibition of agonist-induced cAMP accumulation at 8 uM preincubated for 10 mins prior to agonist addition measured after 30 mins by HTRF assay relative to SCH23390; type: functional, cell-based; settings: CHO-K1
[12] = molecular target: T1, Angiotensin-converting enzyme; experiment: Inhibition of ACE (unknown origin) assessed as 3-Hydroxybutyril-glycil-glycil-glycine conversion to 3-hydroxybutyric acid after 60 mins by WST assay
[13] = molecular target: T3, Prostaglandin G/H synthase 2 (Homo sapiens, UniProt P35354); experiment: Inhibition of COX-2 (unknown origin) using arachidonic acid as substrate assessed as formation of prostanoid products preincubated for 10 mins prior to substrate addition measured after 2 mins by Ellman's method
T3 sequence (P35354 whole entry): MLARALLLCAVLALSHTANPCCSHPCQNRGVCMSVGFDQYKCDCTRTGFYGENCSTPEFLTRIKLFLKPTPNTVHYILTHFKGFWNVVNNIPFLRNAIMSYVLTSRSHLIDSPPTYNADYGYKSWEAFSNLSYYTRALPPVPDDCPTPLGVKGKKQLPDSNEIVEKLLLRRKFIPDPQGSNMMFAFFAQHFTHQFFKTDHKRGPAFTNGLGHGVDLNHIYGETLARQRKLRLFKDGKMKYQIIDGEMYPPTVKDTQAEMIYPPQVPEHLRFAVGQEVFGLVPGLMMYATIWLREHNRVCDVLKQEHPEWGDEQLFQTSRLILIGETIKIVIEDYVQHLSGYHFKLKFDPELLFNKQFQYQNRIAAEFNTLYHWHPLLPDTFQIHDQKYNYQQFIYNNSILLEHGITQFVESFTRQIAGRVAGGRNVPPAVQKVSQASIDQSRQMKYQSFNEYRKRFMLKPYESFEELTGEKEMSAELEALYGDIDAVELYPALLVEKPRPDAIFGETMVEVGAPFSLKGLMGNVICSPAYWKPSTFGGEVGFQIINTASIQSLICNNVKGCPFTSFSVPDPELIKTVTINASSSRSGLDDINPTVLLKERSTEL

[14] = molecular target: T2, Prostaglandin G/H synthase 1; experiment: Inhibition of COX-1 (unknown origin) using arachidonic acid as substrate assessed as formation of prostanoid products preincubated for 10 mins prior to substrate addition measured after 2 mins by Ellman's method

| SMILES | inhibition [1] [%] | Activity [2] [%] | Activity [3] [%] | inhibition [4] [%] | inhibition [6] [%] | other results |
| --- | --- | --- | --- | --- | --- | --- |
| CN(C)CCC=C1c2ccccc2C=Cc2ccccc21 | 98 | -4.7 | 1 | 95 | – | – |
| Cc1c(O)cccc1C(=O)N[C@@H](CSc1ccccc1)[C@H](O)CN1C[C@H]2CCCC[C@H]2C[C@H]1C(=O)NC(C)(C)C | – | – | – | – | – | inhibition [5]: 48% |
| NC1=NCC2c3ccccc3Cc3ccccc3N12 (stereo not given) | 96 | -1 | -0.33 | 5.5 | – | – |
| Oc1ccc(OCc2ccccc2)cc1 | – | – | – | – | 86 | – |
| C#C[C@]1(O)CC[C@H]2[C@@H]3CCC4=CCCC[C@@H]4[C@H]3C(=C)C[C@@]21CC | 79 | 2.8 | 7.1 | 88 | – | – |
| CCC[C@@]1(CCc2ccccc2)CC(O)=C([C@H](CC)c2cccc(NS(=O)(=O)c3ccc(C(F)(F)F)cn3)c2)C(=O)O1 | – | – | – | – | – | inhibition [7]: 31% |
| O[C@@H](c1cc(C(F)(F)F)nc2c(C(F)(F)F)cccc12)[C@H]1CCCCN1 (relative stereo) | 82 | 0.6 | 45 | 90 | – | – |
| CC(C)C(=O)Nc1ccc([N+](=O)[O-])c(C(F)(F)F)c1 | – | – | – | – | 100 | – |
| CN(C)CC/C=C1/c2ccccc2COc2ccc(CC(=O)O)cc21 | 20 | -1.7 | -0.14 | 52 | – | – |
| Cc1ccc(-c2cc(C(F)(F)F)nn2-c2ccc(S(N)(=O)=O)cc2)cc1 | – | – | – | – | – | Activity [8]: 175%; inhibition [9]: 96%; Activity [10]: 1.8%; inhibition [11]: 95% |
| CN(C)CCCN1c2ccccc2CCc2ccc(Cl)cc21 | 99 | -4.5 | 13 | 92 | – | – |
| CC1(C)NC(=O)N(c2ccc([N+](=O)[O-])c(C(F)(F)F)c2)C1=O | – | – | – | – | 99 | – |
| CC(N)C12CC3CC(CC(C3)C1)C2 (stereo not given) | -0.4 | -0.8 | 3.6 | 41 | – | – |
| CO[C@@H]1[C@@H](OC(N)=O)[C@@H](O)[C@H](Oc2ccc3c(O)c(NC(=O)c4ccc(O)c(CC=C(C)C)c4)c(=O)oc3c2C)OC1(C)C [NOVOBIOCIN] | – | – | – | – | – | Ki [12]: 167 µM; inhibition [12]: Dose-dependent effect; inhibition [5]: 75% |
| O=C(c1ccc(OCCN2CCCCC2)cc1)c1c(-c2ccc(O)cc2)sc2cc(O)ccc12 | 97 | -7.2 | 4.7 | 88 | – | – |
| CCCc1nc2c(C)cc(-c3nc4ccccc4n3C)cc2n1Cc1ccc(-c2ccccc2C(=O)O)cc1 | – | – | – | – | – | Ki [12]: 6 µM; inhibition [12]: Dose-dependent effect; inhibition [5]: 97% |
| O=C1CN(/N=C/c2ccc([N+](=O)[O-])o2)C(=O)N1 | – | – | – | – | 66 | – |

| SMILES | inhibition [1] [%] | Activity [2] [%] | Activity [3] [%] | inhibition [4] [%] | inhibition [6] [%] | other results |
| --- | --- | --- | --- | --- | --- | --- |
| CC[C@H]1OC(=O)[C@H](C)[C@@H](O[C@H]2C[C@@](C)(OC)[C@@H](O)[C@H](C)O2)[C@H](C)[C@@H](O[C@@H]2O[C@H](C)C[C@H](N(C)C)[C@H]2O)[C@](C)(O)C[C@@H](C)CN(C)[C@H](C)[C@@H](O)[C@]1(C)O | – | – | – | – | 68 | – |
| NC(=O)N/N=C/c1ccc([N+](=O)[O-])o1 | – | – | – | – | 91 | – |
| CC(CN1c2ccccc2Sc2ccccc21)N(C)C (stereo not given) | 84 | -7.4 | 3.5 | 95 | – | – |
| O=[N+]([O-])c1ccc(O)c2ncccc12 [NITROXOLINE] | – | – | – | – | 97 | Ki [13]: 1 µM |
| C[C@H](CS)C(=O)N1CCC[C@H]1C(=O)O [CAPTOPRIL] | – | – | – | – | 48 | Ki [13]: 12 µM; Ki [14]: 17 µM |
| O=C1c2c(O)ccc(O)c2C(=O)c2c(NCCNCCO)ccc(NCCNCCO)c21 | 29 | 66 | -0.4 | 81 | – | – |
| Nc1ccc(/N=N/c2ccccc2)c(N)n1 | – | – | – | – | 23 | – |
| Cc1nc(Nc2ncc(C(=O)Nc3c(C)cccc3Cl)s2)cc(N2CCN(CCO)CC2)n1 [DASATINIB] | – | – | – | – | – | Ki [12]: 715 µM; inhibition [12]: Dose-dependent effect; inhibition [5]: 46% |
| C[C@@H]1O[C@@H]1P(=O)(O)O | -1.3 | -1.2 | 0.09 | 29 | – | – |
| O=C(O)CCCCC1CCSS1 (stereo not given) | – | – | – | – | 95 | – |
| CCc1cccc2c3c([nH]c12)C(CC)(CC(=O)O)OCC3 (stereo not given) | -1.4 | -1.9 | 0.96 | 13 | – | – |
| COc1cc2nc(N3CCN(C(=O)C4COc5ccccc5O4)CC3)nc(N)c2cc1OC (stereo not given) | 102 | -4.7 | 2.4 | – | – | – |
| CC/C=C\C/C=C\C/C=C\CCCCCCCC(=O)O [LINOLENIC ACID] | – | – | – | – | 100 | Ki [14]: 4 µM |
| O=C(O)[C@@H]1CCCN1 [PROLINE] | – | – | – | – | – | Ki [12]: 86 µM; inhibition [12]: Dose-dependent effect; inhibition [5]: 93% |
| CCn1cc(C(=O)O)c(=O)c2ccc(C)nc21 | – | – | – | – | 34 | – |
| NS(=O)(=O)c1cc(C(=O)O)c(NCc2ccco2)cc1Cl | – | – | – | – | 36 | – |
| Nc1nc2[nH]cnc2c(=S)[nH]1 | 2.3 | 0.2 | 0.61 | 21 | – | – |
